# Measurements reported in publication PMC10447463, “Data-mining unveils structure–property–activity correlation of viral infectivity enhancing self-assembling peptides” (Nature Communications, 2023).
# Where two headings read alike, the source gives them in different places.
# How the values were obtained:
# [1] = system: HIV-1 infection of TZM-bl cells; experiment: HIV-1 infectivity enhancement assay, β-galactosidase luminescence; type: cell-based; conditions: for Rel-EFC: infection relative to EF-C (QCKIKQIINMWQ = 1); for Log10 Infection Rel EFC: log10 of infection relative to EF-C; for Log Infectivity: Log10 infection relative to EF-C, asymmetric std dev errors; for Log Infectivity / Abs. Inf.: TZM-bl cells; for Log10 Infection Rel EF-C: HIV-1 infection of TZM-bl cells; for Abs. Infection at 0.26 µM / Infect 1 0.26 µM / Infect 2 0.26 µM / Infect 3 0.26 µM: peptide 0.26 µM; for Abs. Infection at 0.26 µM / Abs. Infection at 1.3 µM: mean of n = 3, Figure 4A; for Infect 1 0.26 µM / Infect 1 .3 µM: replicate 1, absolute infection signal; for Infect 1 0.26 µM / Infect 2 0.26 µM / Infect 3 0.26 µM / Infect 1 .3 µM / Infect 2 1.3µM / Infect 3 1.3 µM: Figure 4A; for Infect 2 0.26 µM / Infect 2 1.3µM: replicate 2, absolute infection signal; for Infect 3 0.26 µM / Infect 3 1.3 µM: replicate 3, absolute infection signal; for Abs. Infection at 1.3 µM / Infect 1 .3 µM / Infect 2 1.3µM / Infect 3 1.3 µM: peptide 1.3 µM; for Log10 of Rel to EFC (Feb2021): Log10 of infection relative to EF-C; for Abs. Inf.: absolute HIV-1 infection signal, β-galactosidase luminescence
# [2] = type: physicochemical; conditions: for ThT Cat. / ThT-Fluorescence (categorical): ThT-active if fluorescence at least twice the control
# Method in brief: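 Preformed peptide fibrils (1 mg/mL) mixed with 50 µM ThT in PBS, 15 min at RT, fluorescence ex 440/em 488 nm versus PBS blank, triplicates. Zeta potential: peptides at 1 mg/mL in PBS pH 7.4, aged 1 d at RT, diluted in 1 mM KCl, Smoluchowski from electrophoretic mobility.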
# [3] = β-sheet content by ATR-FT-IR; type: physicochemical; conditions: for b -sheet / %: Fig. S7 panel A, β-sheet content by ATR-FT-IR
# Method in brief: (§1)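 Using ATR FT-IR (diamond, 2 cm^-1, 64 scans), lyophilized 1 mg/mL PNF samples gave β-sheet content by a published calculation. Fluorescamine signals of 3 kDa filtrates relative to unfiltered samples, normalised to DMSO as 1, yielded CR in percent.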
# [4] = Conversion rate (CR) assay with fluorescamine; type: physicochemical; set-up: key to CR: % = 100−100×filtrate/original fluorescence intensity; conditions: conversion rate, fluorescamine assay; for CR / %: Fig. S7 panel B
# Method in brief: as §1
# [5] = Fig. S7 panel A (plotted against β-sheet content)
# [6] = Fig. S7 panel B (plotted against CR), rounded to two decimals
# [7] = Log10 of infection rate relative to EF-C, Figure 3A source data
# [8] = infection rate relative to EF-C, log10, data of Figure 2D
# [9] = infection rate relative to EF-C, log10, source data of Figure 2C
# [10] = ThT fluorescence category, 1 if Rel. ThT >2
Substance,Rel-EFC ([1]; 1.3 µM peptide),Log10 Infection Rel EFC ([1]; 1.3 µM peptide),"Log Infectivity [1, 5]","Log Infectivity [1, 6]","Log10 Infection Rel EF-C [1, 7]","Log10 Infection Rel EF-C [1, 8]","Log10 Infection Rel EF-C [1, 9]",Abs. Infection at 0.26 µM [1],Infect 1 0.26 µM [1],Tht category (> 2 to blank = +) ([2]; Fig S10 panel D),ThT Cat. ([2]; Fig S10 panel E),Tht category (> 2 to blank = +) ([2]; FigS12 panel A),"ThT Cat, ([2]; FigS12 panel B)","ThT Cat, ([2]; ThT category, 1 if Rel. ThT >2)",ThT Cat. / ThT-Fluorescence (categorical) [2],b -sheet / % [3] [%],CR / % [4] [%],CR [4],Abs. Inf. [1],"ThT Cat. ([2]; ThT category, 1 if Rel. ThT >2)",other results
CSISIQI,"0,06","-1,25",-1.252,-1.25,-1.25,-1.252,-1.252,1390,1340,"1 (ThT. Cat is 1, if Rel. ThT >2)","1 (ThT. Cat is 1, if Rel. ThT >2)","1 (ThT. Cat is 1, if Rel. ThT >2)","1 (ThT. Cat is 1, if Rel. ThT >2)","1 (ThT. Cat is 1, if Rel. ThT >2)","1 (ThT. Cat is 1, if Rel. ThT >2)",58.57,79.3,79.31,,,"Infect 2 0.26 µM [1]: 1160; Infect 3 0.26 µM [1]: 1670; Abs. Infection at 1.3 µM [1]: 3087; Infect 1 .3 µM [1]: 3310; Infect 2 1.3µM [1]: 2600; Infect 3 1.3 µM [1]: 3350; ThT Cat. [2, 10]: 1 (ThT. Cat is 1, if Rel. ThT >2)"
CSISIQINM,"0,2","-0,7",-0.7027,-0.7,-0.7,-0.7027,-0.7027,,,"1 (ThT. Cat is 1, if Rel. ThT >2)","1 (ThT. Cat is 1, if Rel. ThT >2)",,,"1 (ThT. Cat is 1, if Rel. ThT >2)","1 (ThT. Cat is 1, if Rel. ThT >2)",55.93,86,86,,,"Log10 of Rel to EFC (Feb2021) ([1]; all peptides of FigS16): -0.7; ThT Cat. [2, 10]: 1 (ThT. Cat is 1, if Rel. ThT >2)"
EIEIQINM,"0,04","-1,44",-1.44,-1.44,-1.44,-1.44,-1.44,203.3,203.33,0 (ThT-inactive (N-Fold <2)),0 (ThT-inactive (N-Fold <2)),0 (ThT-inactive (N-Fold <2)),0 (ThT-inactive (N-Fold <2)),0 (ThT-inactive (N-Fold <2)),0 (ThT-inactive (N-Fold <2)),53.87,78.4,78.43,203.3,0 (ThT-inactive (N-Fold <2)),Infect 2 0.26 µM [1]: 123.33; Infect 3 0.26 µM [1]: 283.33; Abs. Infection at 1.3 µM [1]: 203.3; Infect 1 .3 µM [1]: 253.33; Infect 2 1.3µM [1]: 173.33; Infect 3 1.3 µM [1]: 183.33
EIEIQINMWQ,"0,13","-0,88",-0.881,-0.88,-0.88,-0.881,-0.881,,,"1 (ThT. Cat is 1, if Rel. ThT >2)","1 (ThT. Cat is 1, if Rel. ThT >2)",,,"1 (ThT. Cat is 1, if Rel. ThT >2)","1 (ThT. Cat is 1, if Rel. ThT >2)",53.91,89.9,89.92,2137,"1 (ThT. Cat is 1, if Rel. ThT >2)","infectivity enhancement relative to EF-C ([1]; 1.3 µM peptide): 13%; Log10 of Rel to EFC (Feb2021) ([1]; all peptides of FigS16): -0.88; Log10 of Rel to EFC (Feb2021) ([1]; second listing, peptides with TEM 2cat 0): -0.88; beta sheet ([3]; peptides with TEM 2cat 0): 54"
EIKIQINM,"0,1",-1,-1.001,-1,-1,-1.001,-1.001,,,"1 (ThT. Cat is 1, if Rel. ThT >2)","1 (ThT. Cat is 1, if Rel. ThT >2)","1 (ThT. Cat is 1, if Rel. ThT >2)","1 (ThT. Cat is 1, if Rel. ThT >2)","1 (ThT. Cat is 1, if Rel. ThT >2)","1 (ThT. Cat is 1, if Rel. ThT >2)",48.03,50.7,50.72,3607,"1 (ThT. Cat is 1, if Rel. ThT >2)",
